Measurements: patent publication US4751302A, “Indazole derivatives” (priority 1982, dated 1988)

Experiments:
[1] = system: Carrageenin edema in rat's paw; experiment: Carrageenin Edema Test in Rat's Paw (anti-inflammatory activity, Table 1); assay type: in vivo; conditions: 100 mg/kg oral, hydrochloride, rat
Procedure: An anti-inflammatory activity was measured by orally administering 100 mg/kg of a hydrochloride of the indazole derivative of this invention as set forth in Table 1 to an animal in accordance with the standard method of Carrageenin Edema Test in Rat's Paw described in C. A. Winter et al., Proc. Soc. Exp. Biol. Med., 111, 544 (1962).

in vivo = conditions: mouse, ip, intraperitoneal, hydrochloride, male ddy mice

Row | Structure (SMILES) | inhibition in vivo at 100 mg/kg [1] | LD50 (in vivo)
1 | CCN(CC)CCCNc1n[nH]c2c(Cl)cccc12 [(48), 3-(3-Diethylaminopropylamino)-7-chloroindazole] | 57% | 291 mg/kg
2 | CCN(CC)CCCNc1n[nH]c2ccc(N)cc12 [(49), 3-(3-Diethylaminopropylamino)-5-aminoindazole] | 55% | 244 mg/kg
3 | CCN(CC)CCCNc1n[nH]c2ccc(OC)cc12 [(50), 3-(3-Diethylaminopropylamino)-5-methoxyindazole] | 52% | 200 mg/kg
4 | CCN(CC)CCCNc1n[nH]c2ccc(C)cc12 [(51), 3-(3-Diethylaminopropylamino)-5-methylindazole] | 60% | 231 mg/kg
5 | CCCCN(CCCC)CCCNc1n[nH]c2ccc(Cl)cc12 [(52), 3-(3-Di-n-butylaminopropylamino)-5-chloroindazole] | 61% | 211 mg/kg
6 | CC(CCNc1n[nH]c2ccc(Cl)cc12)N(C)C (stereo not drawn) [(53), 3-(3-Dimethylaminobutylamino)-5-chloroindazole] | 48% | 313 mg/kg
7 | CCN(CC)C(CCNc1n[nH]c2ccc(Cl)cc12)CC(C)C (stereo not drawn) [(54), 3-(3-Diethylamino-5-methylhexylamino)-5-chloroindazole] | 46% | 251 mg/kg
8 | Clc1ccc2[nH]nc(NCCCN3CCCCC3)c2c1 [(55), 3-(3-Piperidinopropylamino)-5-chloroindazole] | 47% | 133 mg/kg
9 | Clc1ccc2[nH]nc(NCCCCCCN3CCCCC3)c2c1 [(56), 3-(6-Piperidinohexylamino)-5-chloroindazole] | 29% | 145 mg/kg
10 | CC(CCNc1n[nH]c2ccc(Cl)cc12)N1CCCCC1 (stereo not drawn) [(57), 3-(3-Piperidinobutylamino)-5-chloroindazole] | 54% | 173 mg/kg
11 | CC(C)CC(CCNc1n[nH]c2ccc(Cl)cc12)N1CCCCC1 (stereo not drawn) [(58), 3-(3-Piperidino-5-methylhexylamino)-5-chloroindazole] | 40% | 180 mg/kg
12 | CC1CCCCN1CCCNc1n[nH]c2ccc(Cl)cc12 (stereo not drawn) [(59), 3-[3-(2-Methylpiperidino)propylamino]-5-chloroindazole] | 63% | 210 mg/kg
13 | CC1CCCC(C)N1CCCNc1n[nH]c2ccc(Cl)cc12 (stereo not drawn) [(60), 3-[3-(2,6-Dimethylpiperidino)propylamino]-5-chloroindazole] | 36% | 310 mg/kg
14 | OC1CCN(CCCNc2n[nH]c3ccc(Cl)cc23)CC1 [(61), 3-[3-(4-Hydroxypiperidino)propylamino]-5-chloroindazole] | 46% | 210 mg/kg
15 | Clc1ccc2[nH]nc(NCCCN3CCC(Cl)CC3)c2c1 [(62), 3-[3-(4-Chloropiperidino)propylamino]-5-chloroindazole] | 65% | 312 mg/kg
16 | Clc1ccc2[nH]nc(NCCCN3CCCCCC3)c2c1 [(63), 3-(3-Homopiperidinopropylamino)-5-chloroindazole] | 57% | 331 mg/kg
17 | CN1CCN(CCCNc2n[nH]c3ccc(Cl)cc23)CC1 [(64), 3-[3-(4-Methylpiperadino)propylamino]-5-chloroindazole] | 29% | 229 mg/kg
18 | Clc1ccc2[nH]nc(NCCCN3CCCC3)c2c1 [(65), 3-(3-Pyrrolidinopropylamino)-5-chloroindazole] | 36% | 136 mg/kg
19 | Clc1ccc2[nH]nc(NCCCN3CCOCC3)c2c1 [(66), 3-(3-Morpholinopropylamino)-5-chloroindazole] | 46% | 246 mg/kg
20 | CCN(CC)CCCNc1n[nH]c2cccc(O)c12 [(67), 3-(3-Diethylaminopropylamino)-4-hydroxyindazole] | 55% | 255 mg/kg
21 | CCN(CC)CCCNc1n[nH]c2ccc(O)cc12 [(68), 3-(3-Diethylaminopropylamino)-5-hydroxyindazole] | 52% | 352 mg/kg
22 | CCN(CC)CCCNc1n[nH]c2cc(O)ccc12 [(69), 3-(3-Diethylaminopropylamino)-6-hydroxyindazole] | 51% | 151 mg/kg
23 | CCN(CC)CCCNc1n[nH]c2c(O)cccc12 [(70), 3-(3-Diethylaminopropylamino)-7-hydroxyindazole] | 56% | 156 mg/kg
24 | CCN(CC)CCCNc1n[nH]c2ccc(I)cc12 [(71), 3-(3-Diethylaminopropylamino)-5-iodoindazole] | 56% | 256 mg/kg

Row | Structure (SMILES) | inhibition in vivo at 100 mg/kg [1] | LD50 (in vivo)
25 | CCN(CC)CCCNc1n[nH]c2c(I)cccc12 [(72), 3-(3-Diethylaminopropylamino)-7-iodoindazole] | 53% | 253 mg/kg
26 | CCN(CC)CCCNc1n[nH]c2c(N)cc(N)cc12 [(73), 3-(3-Diethylaminopropylamino)-5,7-diaminoindazole] | 55% | 355 mg/kg
27 | CCCCN(CCCC)CCCNc1n[nH]c2ccc(O)cc12 [(74), 3-(3-Di-n-butylaminopropylamino)-5-hydroxyindazole] | 53% | 253 mg/kg
28 | CC(CCNc1n[nH]c2ccc(O)cc12)N(C)C (stereo not drawn) [(75), 3-(3-Dimethylaminobutylamino)-5-hydroxyindazole] | 34% | 234 mg/kg
29 | CCN(CC)C(CCNc1n[nH]c2ccc(O)cc12)CC(C)C (stereo not drawn) [(76), 3-(3-Diethylamino-5-methylhexylamino)-5-hydroxyindazole] | 46% | 146 mg/kg
30 | Oc1ccc2[nH]nc(NCCCN3CCCCC3)c2c1 [(77), 3-(3-Piperidinopropylamino)-5-hydroxyindazole] | 51% | 251 mg/kg
31 | Oc1ccc2[nH]nc(NCCCCCCN3CCCCC3)c2c1 [(78), 3-(6-Piperidinohexylamino)-5-hydroxyindazole] | 25% | 225 mg/kg
32 | CC(CCNc1n[nH]c2ccc(O)cc12)N1CCCCC1 (stereo not drawn) [(79), 3-(3-Piperidinobutylamino)-5-hydroxyindazole] | 46% | 146 mg/kg
33 | CC(C)CC(CCNc1n[nH]c2ccc(O)cc12)N1CCCCC1 (stereo not drawn) [(80), 3-(3-Piperidino-5-methylhexylamino)-5-hydroxyindazole] | 32% | 332 mg/kg
34 | CC1CCCCN1CCCNc1n[nH]c2ccc(O)cc12 (stereo not drawn) [(81), 3-[3-(2-Methylpiperidino)propylamino]-5-hydroxyindazole] | 47% | 147 mg/kg
35 | CC1CCCC(C)N1CCCNc1n[nH]c2ccc(O)cc12 (stereo not drawn) [(82), 3-[3-(2,6-Dimethylpiperidino)propylamino]-5-hydroxyindazole] | 30% | 230 mg/kg
36 | Oc1ccc2[nH]nc(NCCCN3CCC(O)CC3)c2c1 [(83), 3-[3-(4-Hydroxypiperidino)propylamino]-5-hydroxyindazole] | 34% | 134 mg/kg
37 | Oc1ccc2[nH]nc(NCCCN3CCC(Cl)CC3)c2c1 [(84), 3-[3-(4-Chloropiperidino)propylamino]-5-hydroxyindazole] | 63% | 163 mg/kg
38 | Oc1ccc2[nH]nc(NCCCN3CCCCCC3)c2c1 [(85), 3-(3-Homopiperidinopropylamino)-5-hydroxyindazole] | 35% | 135 mg/kg
39 | CN1CCN(CCCNc2n[nH]c3ccc(O)cc23)CC1 [(86), 3-[3-(4-Methylpiperadino)propylamino]-5-hydroxyindazole] | 23% | 123 mg/kg
40 | Oc1ccc2[nH]nc(NCCCN3CCCC3)c2c1 [(87), 3-(3-Pyrrolidinopropylamino)-5-hydroxyindazole] | 38% | 238 mg/kg
41 | Oc1ccc2[nH]nc(NCCCN3CCOCC3)c2c1 [(88), 3-(3-Morpholinopropylamino)-5-hydroxyindazole] | 46% | 346 mg/kg
42 | CCN(CC)CCCNc1nn(CCCN(CC)CC)c2cccc(Cl)c12 [(89), 1-(3-Diethylaminopropyl)-3-(3-diethylaminopropylamino)-4-chloroindazole] | 30% | 214 mg/kg
43 | CCN(CC)CCCNc1nn(CCCN(CC)CC)c2ccc(Cl)cc12 [(90), 1-(3-Diethylaminopropyl)-3-(3-diethylaminopropylamino)-5-chloroindazole] | 29% | 223 mg/kg
44 | CCN(CC)CCCNc1nn(CCCN(CC)CC)c2cc(Cl)ccc12 [(91), 1-(3-Diethylaminopropyl)-3-(6-diethylaminopropylamino)-6-chloroindazole] | 22% | 251 mg/kg
45 | CCN(CC)CCCNc1nn(CCCN(CC)CC)c2c(Cl)cccc12 [(92), 1-(3-Diethylaminopropyl)-3-(3-diethylaminopropylamino)-7-chloroindazole] | 32% | 211 mg/kg
46 | CCN(CC)CCCNc1nn(CCCN(CC)CC)c2ccc(N)cc12 [(93), 1-(3-Diethylaminopropyl)-3-(3-diethylaminopropylamino)-5-aminoindazole] | 28% | 191 mg/kg
47 | CCN(CC)CCCNc1nn(CCCN(CC)CC)c2ccc(OC)cc12 [(94), 1-(3-Diethylaminopropyl)-3-(3-diethylaminopropylamino)-5-methoxyindazole] | 30% | 301 mg/kg
48 | CCN(CC)CCCNc1nn(CCCN(CC)CC)c2ccc(C)cc12 [(95), 1-(3-Diethylaminopropyl)-3-(3-diethylaminopropylamino)-5-methylindazole] | 29% | 211 mg/kg
